Measurements reported in patent US20050222167A1, “9-aminoacridine derivatives and process for the preparation thereof” (priority 2002, published 2005).
In brackets after ≈: the same amount, converted by molar mass.

How the values were obtained:
HCT-15 (human colon) = assay: SRB assay, in vitro antitumor effect against human tumor cell lines; type: cell-based; conditions: HCT-15, SRB assay, 48 hours
Procedure: (§1) Experimental 1: In vitro antitumor effect against human tumor cell lines.
(§2) A. Tumor cell lines: A549 (human non-small lung cell)
(§3) • SKOV-3 (human ovarian) • HCT-15 (human colon) • XF-498 (human CNS) • SKMEL-2 (human melanoma) B. Method: SRB Assay • a. Human solid tumor cell lines, A549(non-small lung cell), SKMEL-2(melanoma), HCT-15(colon), SKOV-3(ovarian) and XF-498(CNS) were cultured in 5% CO2 incubators using the RPMI 1640 media containing 10% FBS at 37° C., while with transfer-culturing successively once or twice per week. Cell cultures were dissolved in a solution of 0.25% trysin and 3 mmol CDTA PBS(−) to separate the cells sticked on the culture media. • b. 5 103˜2 104 cells were added into each well of 96-well plate and cultured in 5% CO2 incubator at 37° C. for 24 hours. • c. Each sample drug was dissolved in a little DMSO and diluted with the used medium to a prescribed concentration for experiment, while the final concentration of DMSO was adjusted below 0.5%. • d. Medium of each well cultured for 24 hours as above b. was removed by aspiration. Each 200 μl of drug samples prepared in c. was added into each well and the wells were cultured for 48 hours. Tz (time zero) plates were collected at the point of time drugs were added. • e. According to the SRB assay method, cell fixing with TCA, staining with 0.4% SRB solution, washing with 1% acetic acid and elution of dye with 10 mmol Tris solution were carried out on Tz plates and culture-ended plates, and then, OD values were measured at 520 nm. C. Calculation of Result • a. Time zero (Tz) value was determined with measuring the SRB protein value at the point of time drugs were added. • b. Control value (C) was determined with the OD value of an well untreated with drug. • c. Drug-treated test value (T) was determined with the OD value of drug-treated well. • d. Effects of drugs were estimated with growth stimulation, net growth inhibition and net killing calculated from Tz, C and T values. • e. If T≧Tz, cellular response function was calculated by 100×(T−Tz)/(C−Tz), and, if T<Tz, by 100 (T−Tz)/Tz.

XF-498 (human CNS) = assay: as above; type: cell-based; conditions: XF-498, SRB assay, 48 hours
Procedure: as §1, §2, §3

SKOV-3 (human ovarian) = assay: as above; type: cell-based; conditions: SK-OV-3, SRB assay, 48 hours
Procedure: as §1, §2, §3

[1] = test system: A549 (human non-small lung cell); assay: as above; type: cell-based; conditions: 48 hours
Procedure: as §1, §2, §3

SKMEL-2 (human melanoma) = assay: as above; type: cell-based; conditions: SK-MEL-2, SRB assay, 48 hours
Procedure: as §1, §2, §3

[2] = Acute toxicity test (LD50), Litchfield-Wilcoxon method; conditions: male, mouse, in vivo; iv, ICR mice, observed 14 days
Procedure: Experimental 4. Acute Toxicity Test (LD50): a) Method: Litchfield-Wilcoxon Method.
6-week-old ICR mice (male 30 2.0 g) were fed freely with solid feed and water at room temperature, […], and at humidity 60 5%. Sample drugs were injected into the abdominal cavities of mice. Each group comprised 6 mice. […] LD50 value was calculated by Litchfield-wilcoxon method.

[3] = test system: P388 (mouse lymphoid neoplasma cell); assay: Dye exclusion assay, in vitro antitumor effects against animal leukemia cells; type: cell-based; conditions: P388, trypan blue dye exclusion, 48 hours, read-out: concentration showing 50% cell growth inhibition (IC50)
Excerpt: Experimental 2: In Vitro Antitumor Effects Against Animal Leukemia Cells. A. Material:
Tumor cell lines: P388 (mouse lymphoid neoplasma cell)
B. Method: Dye Exclusion Assay.

Leukemia P388 cells = assay: In vivo antitumor effects against mouse leukemia P388 cells; conditions: abdominal cavity, days 1, 5, 9, BDF1 mice with P388
Procedure: Experimental 3: In Vivo Antitumor Effects Against Mouse Leukemia P388 Cells A. Material of Experiment • BDF1 mice were used. B. Method of Experiment • 1) Leukemia P388 cells being transfer-cultured successively in DBA/2 mouse, were grafted into each mouse of a group comprising 8 mice of 6 week old BDF1 mouse with the dose of 1×10^6 cells/0.1 ml • 2) Sample drugs were dissolved in PBS or suspended in 0.5% tween 80, and then injected into abdominal cavity of mouse at each prescribed concentration on days 1, 5, 9, respectively. • 3) With observation everyday, survival times of tested mice were measured. Antitumor activities was deternimed in such a manner that the increasing ratio (T/C %) of average survival days of drug-treated groups compared with the control group was calculated using the mean survival times of each tested groups.

Structure (SMILES)	ED50 (HCT-15 (human colon))	ED50 (XF-498 (human CNS))	ED50 (SKOV-3 (human ovarian))	ED50 [1]	ED50 (SKMEL-2 (human melanoma))	LD50 at 14 days [2]	IC50 [3]	MST (Leukemia P388 cells; Dose 25 mg/kg)	T/C (%) (Leukemia P388 cells; Dose 25 mg/kg)	MST (Leukemia P388 cells; Dose 50 mg/kg)	T/C (%) (Leukemia P388 cells; Dose 50 mg/kg)	MST (Leukemia P388 cells; Dose 100 mg/kg)	T/C (%) (Leukemia P388 cells; Dose 100 mg/kg)
N.N.[Cl][Pt][Cl] [Cisplatin, cisplatin, reference compound]	3.03 µg/mL	0.77 µg/mL	0.71 µg/mL	0.81 µg/mL	0.71 µg/mL	–	–	–	–	–	–	–	–
CCc1nc(OC)c(NC(=O)N2CCN(c3cc(C)cc(C)c3)CC2)cc1C(=O)NC(C)C(=O)Nc1cc(CO)cc(Nc2c3ccccc3nc3ccccc23)c1 (stereo not shown) [Example 2, 4-(3,5-dimethylphenyl)piperazine-1-carboxylic acid (5-{1-[3-(acridine-9-yl-amino)-5-hydroxymethylphenylcarbamoyl]-ethylcarbamoyl}-6-ethyl-2-methoxypyridine-3-yl)amide]	0.19 µg/mL (≈ 0.243 µM)	0.18 µg/mL (≈ 0.23 µM)	0.12 µg/mL (≈ 0.154 µM)	0.12 µg/mL (≈ 0.154 µM)	0.01 µg/mL (≈ 0.0128 µM)	80 mg/kg	0.3 µg/mL (≈ 0.384 µM)	>60.0 days	>545.5%	>60.0 days	>545.5%	22.0 days	200.0%
CCc1nc(OC)c(NC(=O)N2CCN(c3cc(OC)cc(OC)c3)CC2)cc1C(=O)NC(C)C(=O)Nc1cc(CO)cc(Nc2c3ccccc3nc3ccccc23)c1 (stereo not shown) [Example 3, 4-(3,5-dimethoxyphenyl)piperazine-1-carboxylic acid (5-{1-[3-(acridine-9-yl-amino)-5-hydroxymethylphenylcarbamoyl]-ethylcarbamoyl}-6-ethyl-2-methoxypyridine-3-yl)amide]	0.13 µg/mL (≈ 0.16 µM)	0.18 µg/mL (≈ 0.221 µM)	0.19 µg/mL (≈ 0.234 µM)	0.12 µg/mL (≈ 0.148 µM)	0.03 µg/mL (≈ 0.0369 µM)	80 mg/kg	1 µg/mL (≈ 1.23 µM)	17.0 days	154.5%	>60.0 days	>545.5%	11.6 days	100.0%
CCc1nc(OC)c(NC(=O)N2CCN(c3cc(F)cc(F)c3)CC2)cc1C(=O)NC(C)C(=O)Nc1cc(CO)cc(Nc2c3ccccc3nc3ccccc23)c1 (stereo not shown) [Example 4, 4-(3,5-difluorophenyl)piperazine-1-carboxylic acid (5-{1-[3-(acridine-9-yl-amino)-5-hydroxymethylphenylcarbamoyl]-ethylcarbamoyl}-6-ethyl-2-methoxypyridine-3-yl)amide]	–	–	–	–	–	–	0.9 µg/mL (≈ 1.14 µM)	–	–	–	–	–	–
CCCc1nc(OC)c(NC(=O)N2CCN(c3cc(OC)cc(OC)c3)CC2)cc1C(=O)NC(C)C(=O)Nc1cc(CO)cc(Nc2c3ccccc3nc3ccccc23)c1 (stereo not shown) [Example 9, 4-(3,5-dimethoxyphenyl)piperazine-1-carboxylic acid (5-{1-[3-(acridine-9-yl-amino)-5-hydroxymethylphenylcarbamoyl]-ethylcarbamoyl}-2-methoxy-6-propylpyridine-3-yl)-amide]	0.15 µg/mL (≈ 0.181 µM)	0.15 µg/mL (≈ 0.181 µM)	0.19 µg/mL (≈ 0.23 µM)	0.24 µg/mL (≈ 0.29 µM)	0.15 µg/mL (≈ 0.181 µM)	–	0.4 µg/mL (≈ 0.484 µM)	–	–	–	–	–	–
CCc1nc(OC)c(NC(=O)N2CCN(c3cc(C)cc(C)c3)CC2)cc1C(=O)NC(C)C(=O)Nc1cc(CO)cc(Nc2c3ccccc3nc3c(C)c(C)ccc23)c1 (stereo not shown) [Example 16, 4-(3,5-dimethylphenyl)piperazine-1-carboxylic acid (5-{1-[3-(3,4-dimethylacridine-9-yl-amino)-5-hydroxymethylphenylcarbamoyl]-ethylcarbamoyl}-6-ethyl-2-methoxypyridine-3-yl)amide]	0.07 µg/mL (≈ 0.0865 µM)	0.09 µg/mL (≈ 0.111 µM)	0.14 µg/mL (≈ 0.173 µM)	0.08 µg/mL (≈ 0.0989 µM)	0.02 µg/mL (≈ 0.0247 µM)	–	0.3 µg/mL (≈ 0.371 µM)	–	–	–	–	–	–
CCc1nc(OC)c(NC(=O)N2CCN(c3cc(C)cc(C)c3)CC2)cc1C(=O)Nc1cc(CO)cc(Nc2c3ccccc3nc3ccccc23)c1 [Example 19, 4-(3,5-dimethylphenyl)-piperazine-1-carboxylic acid{5-[3-(acridine-9-yl-amino)-5-hydroxymethylphenylcarbamoyl]-6-ethyl-2-methoxy-pyridine-3-yl}amide]	0.27 µg/mL (≈ 0.38 µM)	0.38 µg/mL (≈ 0.535 µM)	0.17 µg/mL (≈ 0.239 µM)	0.21 µg/mL (≈ 0.296 µM)	0.18 µg/mL (≈ 0.254 µM)	–	–	–	–	–	–	–	–
